Patent US11613522B2, “Herbicidally active 3-phenylisoxazoline-5-carboxamides of tetrahydro- and dihydrofurancarboxamides” (BAYER AKTIENGESELLSCHAFT, priority 2017, dated 2023)

Tests used:
Type in all cases: in vivo
[1] = system: Abutilon theophrasti; test: Post-emergence herbicidal activity against ABUTH; settings: dosage 320 g/ha, rated visually after about 3 weeks
Protocol: (§1) [table] Seeds of monocotyledonous and dicotyledonous weeds and crop plants are placed in sandy loam in plastic or wood-fiber pots, covered with soil and cultivated in a greenhouse under controlled growth conditions. 2 to 3 weeks after sowing, the test plants are treated at the one-leaf stage. The compounds of the invention, formulated in the form of wettable powders (WP) or as emulsion concentrates (EC), are then sprayed onto the green parts of the plants as aqueous suspension or emulsion with addition of 0.5% additive at a water application rate of 600 l/ha (converted). After the test plants had been kept in the greenhouse under optimum growth conditions for about 3 weeks, the activity of the preparations is rated visually in comparison to untreated controls. For example, 100% activity=the plants have died, 0% activity=like control plants.

[2] = system: Setaria viridis; test: Pre-emergence herbicidal activity against SETVI; settings: dosage 80 g/ha, scored visually after about 3 weeks vs untreated controls; for pest or weed control at 80 g/ha: Setaria viridis, 504 h
Source text: (§2) 1. Pre-emergence herbicidal action against harmful plants and crop plant compatibility Seeds of monocotyledonous and dicotyledonous weed plants and crop plants are placed in plastic or wood fiber pots and covered with soil. The compounds of the invention, formulated in the form of wettable powders (WP) or as emulsion concentrates (EC), are then applied onto the surface of the covering soil as aqueous suspension or emulsion with addition of 0.5% additive at a water application rate of 600 l/ha (converted). After the treatment, the pots are placed in a greenhouse and kept under good growth conditions for the trial plants. After about 3 weeks, the effect of the preparations is scored visually in comparison with untreated controls as percentages. For example, 100% activity=the plants have died, 0% activity=like control plants. [table]

[3] = system: Veronica persica; test: Post-emergence herbicidal activity against VERPE; settings: dosage 320 g/ha, rated visually after about 3 weeks; for pest or weed control at 320 g/ha: Veronica persica, 504 h
Protocol: as §1

[4] = system: Amaranthus retroflexus; test: Post-emergence herbicidal activity against AMARE; settings: dosage 320 g/ha, rated visually after about 3 weeks; for pest or weed control at 320 g/ha: Amaranthus retroflexus, 504 h
Protocol: as §1

[5] = system: Echinochloa crus-galli; test: Post-emergence herbicidal activity against ECHCG; settings: dosage 320 g/ha, rated visually after about 3 weeks; for pest or weed control at 320 g/ha: Echinochloa crus-galli, 504 h
Protocol: as §1

[6] = system: Pharbitis purpurea; test: Post-emergence herbicidal activity against PHBPU; settings: dosage 320 g/ha, rated visually after about 3 weeks; for pest or weed control at 320 g/ha: Ipomoea purpurea, 504 h
Protocol: as §1

[7] = system: Setaria viridis; test: Post-emergence herbicidal activity against SETVI; settings: dosage 320 g/ha, rated visually after about 3 weeks; for pest or weed control at 320 g/ha: Setaria viridis, 504 h
Protocol: as §1

[8] = system: Avena fatua; test: Post-emergence herbicidal activity against AVEFA; settings: dosage 320 g/ha, rated visually after about 3 weeks; for pest or weed control at 320 g/ha: Avena fatua, 504 h
Protocol: as §1

[9] = system: Alopecurus myosuroides; test: Post-emergence herbicidal activity against ALOMY; settings: dosage 320 g/ha, rated visually after about 3 weeks; for pest or weed control at 320 g/ha: Alopecurus myosuroides, 504 h
Protocol: as §1

[10] = system: Avena fatua; test: Pre-emergence herbicidal activity against AVEFA; settings: dosage 80 g/ha, scored visually after about 3 weeks vs untreated controls; for pest or weed control at 80 g/ha: Avena fatua, 504 h, read-out: Pre-emergence herbicidal activity in % against AVEVA (AVEFA)
Source text: as §2

[11] = Pre-emergence herbicidal action against harmful plants (summary of the tables); settings: 504 h, application rate of 0.08 kg of active substance or less per hectare, read-out: herbicidal action, pre-emergence treatment (very good activity)
Source text: as §2, with “plants.” for “plants. [table]”
As shown by the results, compounds according to the invention such as, for example, the compounds No. I-02 and other compounds from the tables (I-05, I-10, I-11, I-12, I-13, I-14, I-15, I-16, I-17, I-18, I-19, I-20, I-21, I-22, I-23, I-24, I-25, I-26, I-27, I-28, I-29) have, when used for pre-emergence treatment, very good activity (80% to 100% herbicidal action) against harmful plants such as Abutilon theophrasti, Alopecurus myosuroides, Amaranthus retroflexus, Avena fatua, Cyperus esculentus, Echinochloa crus-galli, Hordeum murinum, Lolium rigidum, Pharbitis purpurea, Polygonum convolvulus, Setaria viridis, Stellaria media, Veronica persica and Viola tricolor at an application rate of 0.08 kg of active substance or less per hectare.

[12] = system: Polygonum convolvulus; test: Post-emergence herbicidal activity against POLCO; settings: dosage 320 g/ha, rated visually after about 3 weeks
Protocol: as §1

[13] = system: Stellaria media; test: Pre-emergence herbicidal activity against STEME; settings: dosage 80 g/ha, scored visually after about 3 weeks vs untreated controls; for pest or weed control at 80 g/ha: Stellaria media, 504 h
Source text: as §2

[14] = system: Polygonum convolvulus; test: Pre-emergence herbicidal activity against POLCO; settings: dosage 80 g/ha, scored visually after about 3 weeks vs untreated controls; for pest or weed control at 80 g/ha: Fallopia convolvulus, 504 h
Source text: as §2

[15] = system: Stellaria media; test: Post-emergence herbicidal activity against STEME; settings: dosage 320 g/ha, rated visually after about 3 weeks; for pest or weed control at 320 g/ha: Stellaria media, 504 h
Protocol: as §1

[16] = system: Viola tricolor; test: Post-emergence herbicidal activity against VIOTR; settings: dosage 320 g/ha, rated visually after about 3 weeks
Protocol: as §1

[17] = system: Viola tricolor; test: Pre-emergence herbicidal activity against VIOTR; settings: dosage 80 g/ha, scored visually after about 3 weeks vs untreated controls
Source text: as §2

[18] = system: Hordeum murinum; test: Post-emergence herbicidal activity against HORMU; settings: dosage 320 g/ha, rated visually after about 3 weeks
Protocol: as §1

[19] = system: Echinochloa crus-galli; test: Pre-emergence herbicidal activity against ECHCG; settings: dosage 80 g/ha, scored visually after about 3 weeks vs untreated controls
Source text: as §2

[20] = system: Lolium rigidum; test: Post-emergence herbicidal activity against LOLRI; settings: dosage 320 g/ha, rated visually after about 3 weeks
Protocol: as §1

[21] = system: Amaranthus retroflexus; test: Pre-emergence herbicidal activity against AMARE; settings: dosage 80 g/ha, scored visually after about 3 weeks vs untreated controls
Source text: as §2

[22] = system: Lolium rigidum; test: Pre-emergence herbicidal activity against LOLRI; settings: dosage 80 g/ha, scored visually after about 3 weeks vs untreated controls
Source text: as §2

[23] = system: Hordeum murinum; test: Pre-emergence herbicidal activity against HORMU; settings: dosage 80 g/ha
Source text: as §2

[24] = system: Alopecurus myosuroides; test: Pre-emergence herbicidal activity against ALOMY; settings: dosage 80 g/ha, scored visually after about 3 weeks vs untreated controls
Source text: as §2

[25] = system: Veronica persica; test: Pre-emergence herbicidal activity against VERPE; settings: dosage 80 g/ha
Source text: as §2

`CNC(=O)[C@@H]1C[C@H](NC(=O)C2(C)CC(c3cc(F)cc(F)c3)=NO2)CO1` (relative stereo) [Example I-05, 3-(3,5-difluorophenyl)-5-methyl-N-[cis-5-(methylcarbamoyl)tetrahydrofuran-3-yl]-4H-isoxazole-5-carboxamide] gave a pest or weed control at 320 g/ha ([1]; Abutilon theophrasti, 504 h) of 80%, a pest or weed control at 80 g/ha [2] of 90% and a pest or weed control at 320 g/ha [3] of 80%. The pest or weed control at 320 g/ha [4] was 80%, the pest or weed control at 320 g/ha [5] was 90% and the pest or weed control at 320 g/ha [6] was 80%. It also gave a pest or weed control at 320 g/ha [7] of 80%, a pest or weed control at 320 g/ha [8] of 80% and a pest or weed control at 320 g/ha [9] of 90%. For the same compound, the pest or weed control at 80 g/ha [10] was 100%, the pest or weed control at 80 g/ha [11] was 80 to 100% and the pest or weed control at 320 g/ha ([12]; Fallopia convolvulus, 504 h) was 80%. The pest or weed control at 80 g/ha [13] was 80%, the pest or weed control at 80 g/ha [14] was 90% and the pest or weed control at 320 g/ha [15] was 80%. The pest or weed control at 320 g/ha ([16]; Viola tricolor, 504 h) was 80% and the pest or weed control at 80 g/ha ([17]; Viola tricolor, 504 h) was 100%.

For `CONC(=O)[C@@H]1C[C@H](NC(=O)C2(C)CC(c3cccc(F)c3)=NO2)CO1` (relative stereo) [Example I-10, 3-(3-fluorophenyl)-N-[cis-5-(methoxycarbamoyl)tetrahydrofuran-3-yl]-5-methyl-4H-isoxazole-5-carboxamide], the pest or weed control at 80 g/ha [2] was 90%, the pest or weed control at 320 g/ha [3] was 80% and the pest or weed control at 320 g/ha [4] was 80%. For the same compound, the pest or weed control at 320 g/ha [5] was 90%, the pest or weed control at 320 g/ha ([18]; Hordeum murinum, 504 h) was 90% and the pest or weed control at 320 g/ha [6] was 90%. For the same compound, the pest or weed control at 320 g/ha [7] was 90%, the pest or weed control at 80 g/ha ([19]; Echinochloa crus-galli, 504 h) was 80% and the pest or weed control at 320 g/ha ([20]; Lolium rigidum, 504 h) was 90%. It also gave a pest or weed control at 80 g/ha ([21]; Amaranthus retroflexus, 504 h) of 90%, a pest or weed control at 320 g/ha [8] of 90% and a pest or weed control at 80 g/ha ([22]; Lolium rigidum, 504 h) of 100%. For the same compound, the pest or weed control at 320 g/ha [9] was 100%, the pest or weed control at 80 g/ha [10] was 80% and the pest or weed control at 80 g/ha [11] was 80 to 100%. It also gave a pest or weed control at 80 g/ha [13] of 90%, a pest or weed control at 80 g/ha [14] of 90% and a pest or weed control at 80 g/ha ([23]; Hordeum murinum, 504 h) of 100%. For the same compound, the pest or weed control at 320 g/ha [15] was 80% and the pest or weed control at 80 g/ha ([24]; Alopecurus myosuroides, 504 h) was 100%.

In the case of `CN(C)NC(=O)[C@@H]1C[C@H](NC(=O)[C@@]2(C)CC(c3cc(F)cc(F)c3)=NO2)CO1` [Example I-26], the “Post-emergence herbicidal activity in % against ABUTH” value [1] is reported as 80%, the “Pre-emergence herbicidal activity in % against SETVI” value [2] is reported as 90% and the “Post-emergence herbicidal activity in % against VERPE” value [3] is reported as 80%. For the same compound, the “Post-emergence herbicidal activity in % against AMARE” value [4] was 80%, the “Post-emergence herbicidal activity in % against ECHCG” value [5] was 100% and the “Post-emergence herbicidal activity in % against HORMU” value [18] was 100%. For the same compound, the “Post-emergence herbicidal activity in % against PHBPU” value [6] was 90%, the “Post-emergence herbicidal activity in % against SETVI” value [7] was 80% and the “Pre-emergence herbicidal activity in % against ECHCG” value [19] was 90%. The “Post-emergence herbicidal activity in % against LOLRI” value [20] was 100%, the “Pre-emergence herbicidal activity in % against VERPE” value [25] was 80% and the “Pre-emergence herbicidal activity in % against AMARE” value [21] was 100%. The “Post-emergence herbicidal activity in % against AVEFA” value [8] was 100%, the “Pre-emergence herbicidal activity in % against LOLRI” value [22] was 100% and the “Post-emergence herbicidal activity in % against ALOMY” value [9] was 100%. The “Pre-emergence herbicidal activity in % against AVEVA (AVEFA)” value [10] was 90%, the “Post-emergence herbicidal activity in % against POLCO” value [12] was 80% and the “Pre-emergence herbicidal activity in % against STEME” value [13] was 100%. The “Pre-emergence herbicidal activity in % against POLCO” value [14] was 90%, the “Pre-emergence herbicidal activity in % against HORMU” value [23] was 90% and the “Post-emergence herbicidal activity in % against STEME” value [15] was 100%. For the same compound, the “Pre-emergence herbicidal activity in % against ALOMY” value [24] was 100%, the “Post-emergence herbicidal activity in % against VIOTR” value [16] was 90% and the “Pre-emergence herbicidal activity in % against VIOTR” value [17] was 80%.
